Assay [1] deals with platelet aggregation induced by PAF. Nature of the assay: Test 1: Inhibition of platelet aggregation induced by PAF. Particulars: rabbit platelet rich plasma, aggregation induced by PAF (C₁₈) 16 nM final, Born nephelometric technique, read-out: IC₅₀. It is filed as cell-based. As to the method: Test 1: Inhibition of platelet aggregation induced by PAF.
The blood is obtained by cardiac puncture of male New Zealand albino rabbits (between 2 and 2.5 Kg of weight) and coagulatlon is prevented by adding 1 part of 3.16% sodium citrate dihydrate in 9 parts of blood. The platelet rich plasma (PRP) is prepared by blood centrifugation at 250xg for 10 min. at 4°C and it is diluted with platelet poor plasma (PPP) obtained by additional centrifugation at 3000xg for 10 min. The amount of platelets is adjusted to […]. The platelet aggregation induced by PAF (C₁₈, prepared in our laboratory) (16 nM, final) is determined by the Born nephelometric technique (J. Physiol., 1962 162, 67) using a aggregometer Chrono-log 500. The activities of the inhibitors are expressed as IC₅₀, that is to say the concentration of the drug needed to inhibit the platelet aggregation in a 50%.

The subject of assay [2] is hypotension induced by PAF. In words: Test 2: Inhibition of the hypotensive effect induced by PAF in normotense rats. It counts as in vivo. The settings on record: anesthetized male Sprage Dawley rats; compounds given through the femoral vein 3 min. before PAF (0.5 mcg/Kg, i.v.); average arterial pressure. As to the method: Test 2 - Inhibition of the hypotensive effect induced by PAF in normotense rats. Male Sprage Dawley rats, of 180-220 g of weight, anesthetized with sodium pentobarbital (50 mg/Kg, i.p. 1 mL/100 g) have been used. In order to measure the average arterial pressure, a polyethylene catheter is introduced into the carotid artery. The arterial pressure is recorded with the help of a transducer connected with a […] Beckman polygraph. […]

pIC50: −log10 of the molar value. Where two headings read alike, the source gives them in different places.

In the case of `CCCCCCCCCCCCCCCCCC1CCC(COC(=O)N(Cc2cccc[n+]2C)C(C)=O)O1` (mixture of isomers) [Compound 5, (±)-cis,trans-2-[N-acetyl-N-[((5-heptadecyl-2-tetrahydrofuranyl)methoxy)carbonyl]aminomethyl]-1-methylpiridinium iodide], in assay [1] (Oryctolagus cuniculus), the pIC50 was 5.96. The CI₅₀ in assay [2] is 0,8 mg/Kg,i.v.
For `CCCCCCCCCCCCCCCCCC1CCC(COC(=O)N(Cc2cccc[n+]2CC)C(=O)OCC)O1` (mixture of isomers) [Compound 7, (±)-cis,trans-2-[N-ethoxycarbonyl-N-[((5-heptadecyl-2-tetrahydrofuranyl)methoxy)carbonyl]aminomethyl]-1-ethylpyridinium iodide], in that order: 6.89 and 0,34 mg/Kg,i.v.
The like results for `CCCCCCCCCCCCCCCC1CCC(COC(=O)N(Cc2cccc[n+]2CC)C(C)=O)O1` (mixture of isomers) [Compound 11, (±)-cis,trans-2-[N-acetyl-N-[((5-pentadecyl-2-tetrahydrofuranyl)methoxy)carbonyl]aminomethyl]-1-ethylpyridinium iodide] were, in that order, 7.02 and 0,15 mg/Kg,i.v.
Consider `CCCCCCCCCCCCCCCC1CCC(COC(=O)CCCCC[n+]2ccsc2)O1` (mixture of isomers) [Compound 12, (±)-cis,trans-3-[6-[(5-pentadecyl-2-tetrahydrofuranyl)methoxy]-6-oxohexyl] tiazolium 4-methylbenzenesulfonate], for which the pIC50 in assay [1] (Oryctolagus cuniculus) is 5.51.
Still for that read-out and setting: the result for `CCCCCCCCCCCCCCCC1CCC(COCCCCCC[n+]2ccsc2)O1` (mixture of isomers) [Compound 13, (±)-cis,trans-3-[6-[(5-pentadecyl-2-tetrahydrofuranyl)methoxy]hexyl]tiazolium 4-methylbenzenesulfonate] reads 5.89.
For `CCCCCCCCCCCCCCCCCNC(=O)OCC1CCC(COC(=O)N(Cc2cccc[n+]2CC)C(C)=O)O1` (mixture of isomers) [Compound 16, (±)-cis,trans-2-[N-acetyl-N-[((5-(((N-heptadecylcarbamoyl)oxy)methyl)-2-tetrahydrofuranyl)methoxy)carbonyl]aminomethyl] -1-ethylpiridinium iodide], the pIC50 in assay [1] (Oryctolagus cuniculus) is 7.40. Moreover, the CI₅₀ in assay [2] is reported as 0,064 mg/Kg,i.v.
The like results for `CCCCCCCCCCCCCCCNC(=O)OCC1CCC(COC(=O)N(Cc2cccc[n+]2CC)C(C)=O)O1` (mixture of isomers) [Compound 19, (±)-cis,trans-2-[N-acetyl-N-[((5-(((N-pentadecylcarbamoyl)oxy)methyl)-2-tetrahydrofuranyl)methoxy)carbonyl]aminomethyl] -1-ethylpiridinium iodide] were, in that order, 7.27 and 0,098 mg/Kg,i.v.
For `CCCCCCCCCCCCCCCCOCC1CCC(COC(=O)N(Cc2cccc[n+]2CC)C(C)=O)O1` (mixture of isomers) [Compound 25, (±)-cis,trans-2-[N-acetyl-N-[((5-((hexadecyloxy)methyl)-2-tetrahydrofuranyl)methoxy)carbonyl]aminomethyl]-1-ethylpyridinium iodide], in that order: 7.13 and 0,036 mg/Kg,i.v.
Consider `CCCCCCCCCCCCCCCCC[C@@H]1CC[C@H](COC(=O)N(Cc2cccc[n+]2CC)C(C)=O)O1.[I-]` (racemic) [Compound 3, (±)-cis,trans-2-[N-acetyl-N-[((5-heptadecyl-2-tetrahydrofuranyl)methoxy)carbonyl]aminomethyl]-1-ethylpiridinium iodide], for which, in assay [1], the pIC50 was 7.15. The CI₅₀ in assay [2] is 0,15 mg/Kg,i.v.
For `CCCCCCCCCCCCCCCCC[C@@H]1CC[C@H](COC(=O)N(Cc2cccc[n+]2CC)C(C)=O)O1.[Cl-]` (racemic) [Compound 4, (±)-cis,trans-2-[N-acetyl-N-[((5-heptadecyl-2-tetrahydrofuranyl)methoxy)carbonyl]aminomethyl]-1-ethylpiridinium chloride], in that order: 6.72 and 0,19 mg/Kg,i.v.

(Values after EP0353777A2, “New 2,5-disubstituted tetrahydrofuran derivatives” (J. URIACH & CIA. S.A., priority 1988, dated 1990).)
